Results as given in the supplement of paper PMC5908809.

Key:
Assay in all cases: relative IC50 (inflection point of fitted viability curve, relative to fitted max inhibition); higher = less sensitive
Details in all cases: 72 h
NKL (IL-2 2.5 ng/mL) = tested on: NKL (IL-2 2.5 ng/mL)
Procedure: (§1)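 Drug sensitivity and resistance testing: 5 concentrations over a 10,000-fold range, 72 h at 37 °C, viability by CellTiter-Glo normalised to DMSO and benzethonium chloride controls. IC50 is the inflection point of a logistic fit (min fixed at 0, max fitted), so it is relative to the fitted maximal inhibition. Kept only where fitted max inhibition is at least 50%.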

KAI3 (IL-2 2.5 ng/mL) = tested on: KAI3 (IL-2 2.5 ng/mL)
Procedure: as §1

KHYG-1 (IL-2 2.5 ng/mL) = tested on: KHYG-1 (IL-2 2.5 ng/mL)
Procedure: as §1

NK-92 (IL-2 2.5 ng/mL) = tested on: NK-92 (IL-2 2.5 ng/mL)
Procedure: as §1

IMC-1 (IL-2 20 ng/mL) = tested on: IMC-1 (IL-2 20 ng/mL)
Procedure: as §1

NK-YS (IL-2 2.5 ng/mL) = tested on: NK-YS (IL-2 2.5 ng/mL)
Procedure: as §1

SNK-6 (IL-2 2.5 ng/mL) = tested on: SNK-6 (IL-2 2.5 ng/mL)
Procedure: as §1

[1] = tested on: normal primary NK cells, pool 2 (3 donors) (IL-2 2.5 ng/mL)
Procedure: as §1

YT (IL-2 2.5 ng/mL) = tested on: YT (IL-2 2.5 ng/mL)
Procedure: as §1

[2] = tested on: normal primary NK cells, pool 1 (3 donors) (IL-2 2.5 ng/mL)
Procedure: as §1

DERL-7 (IL-2 2.5 ng/mL) = tested on: DERL-7 (IL-2 2.5 ng/mL)
Procedure: as §1

[3] = tested on: normal primary NK cells, pool 1 (3 donors), resting (IL-2 0 ng/mL)
Procedure: as §1

[4] = tested on: normal primary NK cells, pool 3 (3 donors) (IL-2 2.5 ng/mL)
Procedure: as §1

SMILES	relative IC50 (NKL (IL-2 2.5 ng/mL))	relative IC50 (KAI3 (IL-2 2.5 ng/mL))	relative IC50 (KHYG-1 (IL-2 2.5 ng/mL))	relative IC50 (NK-92 (IL-2 2.5 ng/mL))	relative IC50 (IMC-1 (IL-2 20 ng/mL))	relative IC50 (NK-YS (IL-2 2.5 ng/mL))	relative IC50 (SNK-6 (IL-2 2.5 ng/mL))	relative IC50 [1]	relative IC50 (YT (IL-2 2.5 ng/mL))	relative IC50 [2]	relative IC50 (DERL-7 (IL-2 2.5 ng/mL))	relative IC50 [3]	relative IC50 [4]
CS(=O)(=O)OCCCCOS(C)(=O)=O [Busulfan]	27300 nM	24600 nM	26600 nM	36400 nM	26900 nM	29600 nM	15800 nM	35600 nM					
Cc1cnc(Nc2ccc(OCCN3CCCC3)cc2)nc1Nc1cccc(S(=O)(=O)NC(C)(C)C)c1	112 nM	203 nM	262 nM	1330 nM		534 nM	876 nM		977 nM	262 nM	233 nM	715 nM	
O=C(Nc1cccnc1)N1CCC(Cc2cccc(Oc3ccc(C(F)(F)F)cn3)c2)CC1 [PF-3845]	1560 nM		2560 nM			2040 nM				2860 nM		3480 nM	
CC(=O)O[C@@]12CO[C@@H]1C[C@H](O)[C@@]1(C)C(=O)[C@H](O)C3=C(C)[C@@H](OC(=O)[C@H](O)[C@@H](NC(=O)OC(C)(C)C)c4ccccc4)C[C@@](O)([C@@H](OC(=O)c4ccccc4)[C@H]21)C3(C)C [Docetaxel]	1.84 nM	2.14 nM	3.9 nM	10.9 nM	3.14 nM	2.02 nM	0.8 nM		2.24 nM		3.18 nM		
O=C(O)C1(C(=O)O)CCC1.[NH2-].[NH2-].[Pt+2] [Carboplatin]					8070 nM			16600 nM					16000 nM
COc1cc2nccc(Oc3ccc(NC(=O)Nc4cc(C)on4)c(Cl)c3)c2cc1OC [Tivozanib]			1630 nM	319 nM		1750 nM	799 nM		1490 nM		2780 nM	1520 nM	
CC(=O)O[C@H]1C(=O)[C@@]2(C)[C@H]([C@H](OC(=O)c3ccccc3)[C@]3(O)C[C@H](OC(=O)[C@H](O)[C@@H](NC(=O)c4ccccc4)c4ccccc4)C(C)=C1C3(C)C)[C@]1(OC(C)=O)CO[C@@H]1C[C@@H]2O [Paclitaxel]	4.61 nM	2.92 nM	6.15 nM	22 nM	3.31 nM	4.26 nM	3.77 nM		5.42 nM		3.25 nM		
COc1cc(C(=O)O)ccc1NC(=O)[C@@H]1N[C@@H](CC(C)(C)C)[C@](C#N)(c2ccc(Cl)cc2F)[C@H]1c1cccc(Cl)c1F [RG7388]	2450 nM	39.1 nM	3560 nM	2120 nM		86.3 nM	30.2 nM		209 nM	132 nM	97 nM	29.7 nM	
Cn1cc(-c2ccc3nnc(C(F)(F)c4ccc5ncccc5c4)n3n2)cn1												> 10000 nM	
CC(C)(O)CC(=O)NCCn1ccc2ncnc(Nc3ccc(Oc4cccc(C(F)(F)F)c4)c(Cl)c3)c21 [TAK-285]	> 2500 nM				> 2500 nM			> 2500 nM					> 2500 nM
O=C1CN2Cc3c(ccc(Cl)c3Cl)N=C2N1 [Anagrelide]													> 10000 nM
